Test results taken from patent publication US20020192314A1, “Dietary supplement compositions” (priority 2001, published 2002).

Test system: LDL cholesterol
Assay: LDL cholesterol oxidation lag time, copper ions, absorbance at 234 nm
Format: biochemical, human
Details: copper ions 5 μmole/L
Description: The antioxidant properties of a dietary supplement can be measured using an assay for LDL cholesterol oxidation. Briefly, blood samples are drawn and LDL cholesterol is isolated. The isolated LDL cholesterol is combined with a dietary supplement to be evaluated, and the time (i.e., lag time) before cholesterol oxidation is observed is measured. Copper ions accelerate the production of conjugated dienes due to oxidation, while antioxidants prolong the onset of diene production. Since dienes absorb light at 234 nm, LDL cholesterol oxidation can be monitored by examining the absorbance at 234 nm as a function of time. Thus, the antioxidant properties of, for example, a dietary supplement or other compound can be evaluated by determining the time elapsed before LDL cholesterol oxidation is observed.
LDL cholesterol oxidation is usually determined by measuring absorbance at 234 nm (AbS234 nm) as a function of time under oxidative conditions. The antioxidant effectiveness of various grape seed extracts was determined. LDL cholesterol was prepared from human volunteer blood samples as described above. Isolated LDL cholesterol was then mixed with a buffer, vitamin E, or grape seed extract. Copper ions (5 μmole/L final concentration) were added to each sample. Grape seed extracts were prepared at 0.5 or 1.0 mg/L final concentration. […]

How did the “time LDL cholesterol protected from oxidation” value turn out when Vitamin E was run?
The value was “about 125 min”.

And the “LDL oxidation lag time” value (grape seed extract 0.5 mg/L, vitamin E amount comparable to blood level after 400 IU)?
Its value is 125 min.
